Source: patent publication US7307044B2, “3-biphenyl-substituted-3-substituted-4-ketolactam and ketolactone and their utilization as pesticide” (Bayer CropScience AG, priority 2001, dated 2007)

Legend:
Format in all cases: in vivo
Details in all cases: 250 g ai/ha, after three weeks
Alopecurus [1] = test: Pre-emergence test (greenhouse)
Method: (§1) Pre-Emergence Test Solvent: 5 parts by weight of acetone Emulsifier: 1 part by weight of alkylaryl polyglycol ether To produce a suitable preparation of active compound, 1 part by weight of active compound is mixed with the stated amount of solvent, the stated amount of emulsifier is added and the concentrate is diluted with water to the desired concentration. Seeds of the test plants are sewn in normal soil. After about 24 hours, the soil is sprayed with the preparation of active compound such that the particular amounts of active compound desired are applied per unit area. The concentration of the spray liquor is chosen such that the particular amounts of active compound desired are applied in 1000 l of water/ha. After three weeks, the degree of damage to the plants is rated in % damage in comparison to the development of the untreated control. The figures denote: • 0%=no effect (like untreated control) • 100%=total destruction

Amaranthus = test: Pre-emergence test (greenhouse)
Method: as §1

Avena fatua [2] = test: Pre-emergence test (greenhouse)
Method: as §1

Echinochloa [3] = test: Pre-emergence test (greenhouse)
Method: as §1

Setaria [4] = test: Pre-emergence test (greenhouse)
Method: as §1

Alopecurus [5] = test: Post-emergence test (greenhouse)
Method: (§2) Solvent: 5 parts by weight of acetone
(§3) Emulsifier: 1 part by weight of alkylaryl polyglycol ether
(§4) To produce a suitable preparation of active compound, 1 part by weight of active compound is mixed with the stated amount of solvent, the stated amount of emulsifier is added and the concentrate is diluted with water to the desired concentration.
(§5) Test plants of a height of 5-15 cm are sprayed with the preparation of active compound such that the particular amounts of active compound desired are applied per unit area. The concentration of the spray liquor is chosen such that the particular amounts of active compound desired are applied in 1000 l of water/ha.
(§6) After three weeks, the degree of damage to the plants is rated in % damage in comparison to the development of the untreated control.
(§7) The figures denote: • 0%=no effect (like untreated control) • 100%=total destruction

Avena fatua [6] = test: Post-emergence test (greenhouse)
Method: as §2, §3, §4, §5, §6, §7

Echinochloa [7] = test: Post-emergence test (greenhouse)
Method: as §2, §3, §4, §5, §6, §7

Setaria [8] = test: Post-emergence test (greenhouse)
Method: as §2, §3, §4, §5, §6, §7

Sinapis = test: Post-emergence test (greenhouse)
Method: as §2, §3, §4, §5, §6, §7

## COC1CCC2(CC1)NC(=O)C(Cl)(c1c(C)cc(-c3cccc(Cl)c3)cc1C)C2=O (stereo not shown) [Ex. I-1-4]
Alopecurus [1]
  degree of damage to the plants in % damage: 95%
Amaranthus
  degree of damage to the plants in % damage: 90%
Avena fatua [2]
  degree of damage to the plants in % damage: 90%
Echinochloa [3]
  degree of damage to the plants in % damage: 100%
Setaria [4]
  degree of damage to the plants in % damage: 100%
Alopecurus [5]
  degree of damage to the plants in % damage: 100%
Avena fatua [6]
  degree of damage to the plants in % damage: 100%
Echinochloa [7]
  degree of damage to the plants in % damage: 100%
Setaria [8]
  degree of damage to the plants in % damage: 100%
Sinapis
  degree of damage to the plants in % damage: 70%
